Experimental data reported in patent publication US20040266784A1, “Calcium channel inhibitors comprising benzhydril spaced from piperazine” (priority 1998, published 2004).
Like-named read-outs stand apart in the source and are kept apart here.

Columns and labels:
[1] = target: T1, rat L-type channels (α1C+α2δ+β1b cDNA subunits) (Rattus norvegicus, UniProt P22002); assay: Whole cell patch clamp, L-type calcium channel block in HEK 293 cells; assay type: cell-based; conditions: Tested at 0.1 Hz, 5 mM Ba2+
T1 construct: expressed in transfected cells
Description: (§1) Antagonist activity was measured using whole cell patch recordings on human embryonic kidney cells either stably or transiently expressing rat N-type channels (α1B+[…]+β1b subunits) with 5 mM barium as a charge carrier. Alternatively, cells either stably or transiently expressing rat L-type channels (α1C+α2δ+β1b cDNA subunits) and P/Q-type channels (α1A+α2δ+β1b cDNA subunits)
(§2) After an incubation period of from 24 to 72 hrs the culture medium was removed and replaced with external recording solution (see below). Whole cell patch clamp experiments were performed using an Axopatch 200B amplifier (Axon Instruments, Burlingame, Calif.) linked to an IBM compatible personal computer equipped with pCLAMP software. […] Current data shown were elicited by a train of 100 ms test pulses at 0.066 Hz from −100 mV and/or −80 mV to various potentials (min. −20 mV, max. +30 mV). Drugs were perfused directly into the vicinity of the cells using a microperfusion system.
(§3) Normalized dose-response curves were fit (Sigmaplot 4.0, SPSS Inc., Chicago, Ill.) by the Hill equation to determine IC50 values. […]
(§4) Whole cell patch clamp experiments were performed using an Axopatch 200B amplifier (Axon Instruments, Burlingame, Calif.) linked to a personal computer equipped with pCLAMP software. […] Data were analyzed using Clampfit (Axon Instruments) and SigmaPlot 4.0 (Jandel Scientific).

[2] = target: T2, rat N-type channels (α1B+α2δ+β1b subunits) (Rattus norvegicus, UniProt Q02294); assay: Whole cell patch clamp, N-type calcium channel block in HEK 293 cells; assay type: cell-based; conditions: Tested at 0.1 Hz, 5 mM Ba2+
T2 construct: expressed in transfected cells

[3] = target: T2, rat N-type channels (α1B+α2δ+β1b subunits); assay: as above; assay type: cell-based; conditions: for specificity for N-type channels as compared to L and P/Q-type: FIGS. 2, 3 and 4
Description: as §1
HEK 293 cells were transfected by a standard calcium-phosphate-DNA coprecipitation method using the rat α1B+β1b+α2δ N-type calcium channel subunits in a vertebrate expression vector (for example, see Current Protocols in Molecular Biology).
as §2
Normalized dose-response curves were fit (Sigmaplot 4.0, SPSS Inc., Chicago, Ill.) by the Hill equation to determine IC50 values. Steady-state inactivation curves were plotted as the normalized test pulse amplitude following 5 s inactivating prepulses at +10 mV increments.
Alternatively, N-type calcium channels (α1B+α2δ+β1b cDNA subunits), L-type channels (α1C+α2δ+β1b cDNA subunits) and P/Q-type channels (α1A+α2δ+β1b cDNA subunits) were transiently expressed in HEK 293 cells. Briefly, cells were cultured in Dulbecco's modified eagle medium (DMEM) supplemented with 10% fetal bovine serum, 200 U/ml penicillin and 0.2 mg/ml streptomycin at 37° C. with 5% CO2. […] At 12 hours the medium was replaced and the cells transiently transfected using a standard calcium phosphate protocol and the appropriate calcium channel cDNAs. Fresh DMEM was supplied and the cells transferred to 28° C./5% CO2.
Whole cell patch clamp experiments were performed using an Axopatch 200B amplifier (Axon Instruments, Burlingame, Calif.) linked to a personal computer equipped with pCLAMP software. […] Currents were typically elicited from a holding potential of −80 mV to +10 mV using Clampex software (Axon Instruments). […] The compounds were then applied during the low frequency pulse trains for two to three minutes to assess tonic block, and subsequently the pulse frequency was increased to 0.2 Hz to assess frequency dependent block. Data were analyzed using Clampfit (Axon Instruments) and SigmaPlot 4.0 (Jandel Scientific).

[4] = target: T3, human α1G subunits (T-type channels) (Homo sapiens, UniProt O43497); assay: Block of α1G T-type channels, patch clamp in HEK cell lines; assay type: cell-based
T3 construct: expressed in transfected cells
Description: Standard patch-clamp techniques were employed to identify blockers of T-type currents. Briefly, previously described HEK cell lines stably expressing human α1G subunits were used for all the recordings (passage #: 4-20, 37° C., 5% CO2). To obtain T-type currents, plastic dishes containing semi-confluent cells were positioned on the stage of a ZEISS AXIOVERT S100 microscope after replacing the culture medium with external solution (see below). Whole-cell patches were obtained using pipettes (borosilicate glass with filament, O.D.: 1.5 mm, I.D.: 0.86 mm, 10 cm length), fabricated on a SUTTER P-97 puller with resistance values of ˜5 MΩ (see below for internal medium).
Test compounds were dissolved in external solution, 0.1-0.01% DMSO. After ˜10 min rest, they were applied by gravity close to the cell using a WPI microfil tubing. The “non-inactivating” pre-pulse was used to examine the resting block of a compound. The “inactivating” protocol was employed to study voltage-dependent block. However, the initial data were obtained using the non-inactivating protocol.

[5] = target: T4, P/Q-type channels (α1A+α2δ+β1b cDNA subunits) (Rattus norvegicus, UniProt P54282); assay: Whole cell patch clamp, P/Q-type calcium channel block in HEK 293 cells; assay type: cell-based; conditions: Tested at 0.1 Hz, 5 mM Ba2+
T4 construct: expressed in transfected cells
Description: as §1, §2, §3, §4

rat formalin model = assay: Formalin-induced pain model; assay type: in vivo; conditions: 30 mg/kg IP, saline control=100%
Description: The effects of intrathecally delivered compounds of the invention on the rat formalin model were measured. The compounds were reconstituted to stock solutions of approximately 10 mg/ml in propylene glycol.
The following study groups were used, with test compound, vehicle control (propylene glycol) and saline delivered intraperitoneally (IP):
Prior to initiation of drug delivery baseline behavioral and testing data were taken.
On the morning of testing, a small metal band (0.5 g) was loosely placed around the right hind paw. The rat was placed in a cylindrical Plexiglas chamber for adaptation a minimum of 30 minutes. Test compound or vehicle control was administered 10 minutes prior to formalin injection (50 μl of 5% formalin) into the dorsal surface of the right hindpaw of the rat. The animal was then placed into the chamber of the automated formalin apparatus where movement of the formalin injected paw was monitored and the number of paw flinches tallied by minute over the next 60 minutes.

[6] = 0.067 Hz, read-out: IC50 for N-type Calcium Channel Block (0.067 Hz)
[7] = 0.2 Hz, read-out: IC50 for N-type Calcium Channel Block (0.2 Hz)
[8] = 80 mV, read-out: Block of α1G T-type Channels IC50, 80 mV
[9] = 100 mV, non-inactivating protocol, read-out: Block of α1G T-type Channels IC50, 100 mV

T3 sequence (O43497 whole entry): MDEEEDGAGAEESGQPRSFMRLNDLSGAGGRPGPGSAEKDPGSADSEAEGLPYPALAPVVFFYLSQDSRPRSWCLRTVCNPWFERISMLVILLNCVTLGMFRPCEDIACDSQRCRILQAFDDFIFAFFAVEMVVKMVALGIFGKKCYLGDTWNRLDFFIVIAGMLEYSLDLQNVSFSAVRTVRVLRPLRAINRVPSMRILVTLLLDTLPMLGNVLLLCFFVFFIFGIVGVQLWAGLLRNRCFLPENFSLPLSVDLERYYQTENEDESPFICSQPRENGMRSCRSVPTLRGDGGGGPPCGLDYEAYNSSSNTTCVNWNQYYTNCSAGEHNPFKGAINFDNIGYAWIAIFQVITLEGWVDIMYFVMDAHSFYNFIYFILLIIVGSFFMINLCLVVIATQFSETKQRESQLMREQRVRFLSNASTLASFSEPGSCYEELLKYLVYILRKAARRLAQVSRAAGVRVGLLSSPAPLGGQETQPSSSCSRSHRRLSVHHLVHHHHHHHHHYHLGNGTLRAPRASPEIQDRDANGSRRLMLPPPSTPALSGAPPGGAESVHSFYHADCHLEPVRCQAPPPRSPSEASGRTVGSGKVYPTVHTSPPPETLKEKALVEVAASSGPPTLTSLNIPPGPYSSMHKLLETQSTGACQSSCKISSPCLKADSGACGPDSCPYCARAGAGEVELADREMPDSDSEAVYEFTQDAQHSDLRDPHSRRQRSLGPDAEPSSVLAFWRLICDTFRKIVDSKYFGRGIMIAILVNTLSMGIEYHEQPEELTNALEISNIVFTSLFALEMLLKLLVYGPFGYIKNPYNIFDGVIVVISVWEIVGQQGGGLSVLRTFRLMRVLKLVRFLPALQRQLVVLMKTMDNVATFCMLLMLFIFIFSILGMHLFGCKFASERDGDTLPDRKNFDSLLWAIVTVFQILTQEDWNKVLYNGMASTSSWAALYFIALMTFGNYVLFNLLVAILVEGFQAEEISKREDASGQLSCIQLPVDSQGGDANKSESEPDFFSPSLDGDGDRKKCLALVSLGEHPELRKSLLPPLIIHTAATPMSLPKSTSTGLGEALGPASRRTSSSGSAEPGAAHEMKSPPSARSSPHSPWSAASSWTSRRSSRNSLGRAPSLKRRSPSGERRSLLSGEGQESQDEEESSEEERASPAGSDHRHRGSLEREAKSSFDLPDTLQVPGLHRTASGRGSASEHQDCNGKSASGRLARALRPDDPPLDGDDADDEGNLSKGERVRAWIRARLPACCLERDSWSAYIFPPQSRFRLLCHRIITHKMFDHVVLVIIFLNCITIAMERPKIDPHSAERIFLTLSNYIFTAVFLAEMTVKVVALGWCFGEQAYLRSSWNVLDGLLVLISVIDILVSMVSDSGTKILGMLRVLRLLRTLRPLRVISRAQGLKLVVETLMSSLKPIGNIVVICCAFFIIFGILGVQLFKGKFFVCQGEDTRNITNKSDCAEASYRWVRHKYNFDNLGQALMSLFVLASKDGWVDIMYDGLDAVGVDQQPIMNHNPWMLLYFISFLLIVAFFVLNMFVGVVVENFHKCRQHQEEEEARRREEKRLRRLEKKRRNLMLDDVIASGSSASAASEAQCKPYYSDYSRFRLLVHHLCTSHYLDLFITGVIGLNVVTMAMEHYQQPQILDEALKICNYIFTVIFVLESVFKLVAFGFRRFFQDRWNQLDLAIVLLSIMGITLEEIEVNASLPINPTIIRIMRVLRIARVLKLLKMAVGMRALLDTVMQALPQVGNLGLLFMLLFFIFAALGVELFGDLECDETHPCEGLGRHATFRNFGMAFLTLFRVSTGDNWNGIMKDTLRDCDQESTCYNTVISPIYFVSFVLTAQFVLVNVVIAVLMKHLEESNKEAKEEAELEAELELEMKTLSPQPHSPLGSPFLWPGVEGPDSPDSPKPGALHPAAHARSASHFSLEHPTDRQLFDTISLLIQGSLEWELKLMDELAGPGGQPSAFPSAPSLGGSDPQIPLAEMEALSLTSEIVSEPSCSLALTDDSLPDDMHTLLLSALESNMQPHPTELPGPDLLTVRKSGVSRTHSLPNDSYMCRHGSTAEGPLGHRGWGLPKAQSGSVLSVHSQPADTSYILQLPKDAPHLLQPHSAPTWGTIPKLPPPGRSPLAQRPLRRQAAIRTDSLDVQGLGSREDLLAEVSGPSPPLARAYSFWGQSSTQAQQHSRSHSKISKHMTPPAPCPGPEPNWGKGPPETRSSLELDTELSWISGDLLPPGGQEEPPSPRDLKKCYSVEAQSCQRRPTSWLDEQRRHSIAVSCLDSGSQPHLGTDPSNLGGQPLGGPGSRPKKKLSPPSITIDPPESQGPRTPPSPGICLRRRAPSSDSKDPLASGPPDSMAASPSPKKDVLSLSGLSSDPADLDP

Row | IC50 [1] [nM] | IC50 [2] [nM] | IC50 [3, 6] [nM] | IC50 [3, 7] [nM] | specificity for N-type channels as compared to L and P/Q-type [3] | IC50 [4, 8] [nM] | IC50 [4, 9] [nM] | IC50 [5] [nM] | SMILES | Maximum Possible Effect±SEM, Phase I (rat formalin model; Phase I) [%] | Maximum Possible Effect±SEM, Phase II (rat formalin model; Phase II) [%] | Maximum Possible Effect±SEM, Phase IIA (rat formalin model; Phase IIA) [%]
1 | > 100000 | 136 | 240 | 130 | selectively block N-type channels | 47 | 202 | 920 | CCOC(=O)C1CN(Cc2cc(OC)c(OC)c(OC)c2)CCN1CCCCCC(c1ccc(F)cc1)c1ccc(F)cc1 (stereo not shown) [Compound P36, 1-[6,6-bis-(4-fluoro-phenyl)-hexyl]-4-(3,4,5,-trimethoxy-benzyl)-piperazine-2-carboxylic acid ethyl ester] |  |  | 
2 | 144000 | 61 | 60 | 13 | selectively block N-type channels | 270 | 579 | 1660 | COc1c(C(C)(C)C)cc(C(=O)N2CCN(C(=O)CCCCC(c3ccc(F)cc3)c3ccc(F)cc3)C[C@@H]2C)cc1C(C)(C)C [Compound P104] | 79 ± 9 | 61 ± 9 | 50 ± 12
